Experimental findings from US8680094B2, “1, 4-benzoxazine compounds and derivatives thereof as therapeutic drugs for the treatment of neurodegenerative conditions” (Board of Regents, The University of Texas System, priority 2008, dated 2014) are described below.

Assay [1] concerns 3-NP-induced mouse model of Huntington's disease. The assay is described as follows: 3-nitropropionic acid (3-NP)-induced mouse model of Huntington's disease. Type of assay: in vivo. On the procedure:
3-Nitropropionic acid administration and behavioral evaluation was done on 8-week old C57BL/6 male mice (Charles River Laboratories, Inc, Wilmington, Mass.) administered with 3-NP in ten intraperitoneal injections (50 mg/kg twice a day for 5 days) with or without HSB-13 (2 mg/kg). Injections of HSB-13 were performed 30 min before 3-NP administration. Control animals received saline injections. On the day following the 5 days of injection, locomotor activity was assessed using The TRU-SCAN® activity monitoring system (Coulborn Instruments, PA) as previously described (Chin et al., 2004; Chen et al., 2008b). The following behavioral parameters were selected: (1) Total movements time, (2) Total movement distance: the sum of all vectored X-Y coordinate changes in the floor plane, (3)Average distance per movement, (4) Mean velocity: the mean velocity of all X-T coordinate change defined movements. Following behavioral evaluation, the mice were deeply anesthetized and brains removed. The brains were fixed in 4% paraformaldehyde in 0.1 M phosphate buffer and cryoprotected in 20% sucrose in 0.1 M phosphate buffer. Coronal sections were cut on a cryostat at 40 microns and stained with cresyl violet (Sigma-Aldrich) as previously described (Chin et al., 2004; Chen et al., 2008b).
3-Nitropropionic acid administration and behavioral evaluation. 8-week old C57BL/6 male mice (Charles River Laboratories, Inc, Wilmington, Mass.) were administered with 3-NP in ten intraperitoneal injections (50 mg/kg twice a day for 5 days) with or without HSB-13 […]). Injections of HSB-13 were performed ˜30 min before 3-NP administration. Control animals received saline injections. On the day following the 5 days of injection, locomotor activity was assessed using THE TRU-SCAN® activity monitoring system (Coulborn Instruments, PA) as previously described (Chin et al. 2004). The following behavioral parameters were selected: (i) Total movements episodes: each movement in the floor plane is a series of coordinate changes with no rest for at least 1 sample interval, (2) Total movement distance: the sum of all vectored X-Y coordinate changes in the floor plane, and (3) Mean velocity: the mean velocity of all X-T coordinate change defined movements. Following behavioral evaluation, the mice were deeply anesthetized and brains removed. The brains were fixed in 4% paraformaldehyde in 0.1 M phosphate buffer and cryoprotected in 20% sucrose in 0.1 M phosphate buffer. Coronal sections were cut on a cryostat at 50 microns and stained with cresyl violet (Sigma).

Assay [2] concerns primary cortical neurons. The experiment in a line: Aβ-induced death of primary cortical neurons. Particulars: 5 uM aged Aβ25-35; viability 24 hours later. Type of assay: cell-based, rat. The protocol: Primary cultures of cortical neurons were cultured from embryonic day 18 rats. The cultures were treated 1-2 days later with 5 uM of aged Aβ peptide (Aβ25-35; purchased from Sigma-Aldrich). Neuronal viability was assayed 24 hours later.

Assay [3] concerns flies expressing human APP695. The assay is described as follows: APP695-induced toxicity in Drosophila (survival of flies). Type of assay: in vivo. On the procedure:
Survival of flies expressing human APP695 compared to controls. […] Bars indicate mean±SEM. FIG. 8 is an image showing HSB-13 protects HT-22 cells against HCA-induced toxicity. HT-22 cells were treated with no additives (Control), 2 mM HCA, or 2 mM HCA+25 μM HSB-13. The appearance of the cultures at 24 hours after treatment is shown.
Expression of human APP695 was induced ubiquitously by crossing transgenic flies carrying a UAS-APP695 construct (Fossgreen et al., 1998) with flies containing an actin-GAL4 promoter using the UAS/GAL4 system (Brand and Perrimon, 1993). Flies were raised at 25° C. in the dark on 10% yeast paste containing different concentrations of HSB-13 (0, 2.5, 5, and 50 μM). The percentage of surviving APP695-expressing progeny was determined by comparing them to control progeny carrying no promoter construct obtained in the same cross and therefore raised under identical conditions as described previously (Greeve et al., 2004).

Assay [4] concerns primary cortical neurons. The assay is described as follows: HCA-induced neurotoxicity in primary cortical neurons. Type of assay: cell-based, rat.

“And” between values parts separate entries of the source, which are not always exact repeats. Identical values can stand only once.

In the case of `Nc1ccc2c(c1)NC(=O)/C(=C/c1cc(Br)c(O)c(Br)c1)O2` [HSB-13, (Z)-6-amino-2-(3,′5′-dibromo-4′-hydrozybenzylidene)-2H-benzo[b][1,4]oxazin-3(4H)-one], the “3-NP-induced striatal degeneration (cresyl violet histology)” value in assay [1] (HSB-13 2 mg/kg body weight, 30 min before each 3-NP injection (50 mg/kg i.p. twice a day, 5 days), FIG. 7A) is listed as “substantially reduced”; in assay [1] (HSB-13 2.5 mg/kg body weight, FIG. 10A), “substantially reduced”. Further, the “locomotor performance: total movement time, total movement distance, average distance per movement, mean velocity” value in assay [1] (HSB-13 2 mg/kg, versus 3-NP alone, 15 min period, FIG. 7B) is listed as “markedly higher”. For the same compound, the “locomotor performance: total movement episodes, total movement distance, mean velocity” value in assay [1] (HSB-13 2.5 mg/kg, versus 3-NP alone, FIG. 10B) is given as “markedly higher”. Also, the “protection against Aβ toxicity” value in the assay with primary cortical neurons [2] is “protects”. The “survival rate compared to untreated flies” value in assay [3] (food containing HSB-13, all p-values<0.05) was “approximately 10 times”. Besides, in assay [3] (raised on food containing HSB-13, printed as 65% at 50 μM to 44% at 50 μM, untreated about 5%), the “survival rate of APP-expressing flies compared to equally treated control flies” value was 65% and 44%. Moreover, in the assay on primary cortical neurons [4], the “protection against HCA-induced neurotoxicity” value is “protects”.
